Species on record: Rattus norvegicus
Assay: Open TG-GATES - Regimen: Daily Repeat
Assay type: toxicity, organism-based, Sprague-Dawley
Design: regimen Daily Repeat, gender Male, age 6 weeks
Details: in vivo, iv, route intravenous injection; for gamma-GTP / A/G / ALP / ALT / AST / BUN / CRE / Ca / Cl / DBIL / GLC / IP / K / LDH / Na / PL / RALB / TBIL / TC / TG / TP: tissue Plasma; for APTT / Bas / Eos / Fbg / Hb / Ht / Lym / MCH / MCHC / MCV / Mono / Neu / PT / Plat / RBC / Ret / WBC: tissue Blood; for KIDNEY_L / KIDNEY_R / KIDNEY_TOTAL: tissue Kidney; for LIVER: tissue Liver
[1] = 4 mg/kg, […], dose level Low, time 14 day
[2] = 4 mg/kg, […], dose level Low, time 28 day
[3] = 12 mg/kg, 72 h, dose level Middle, time 3 day
[4] = 12 mg/kg, […], dose level Middle, time 7 day
[5] = 12 mg/kg, […], dose level Middle, time 14 day
[6] = 12 mg/kg, […], dose level Middle, time 28 day
[7] = 40 mg/kg, 72 h, dose level High, time 3 day
[8] = 40 mg/kg, […], dose level High, time 7 day

SMILES: CN(C)c1ncnc2c1ncn2[C@@H]1O[C@H](CO)[C@@H](N)[C@H]1O [PUROMYCIN AMINONUCLEOSIDE]
- gamma-GTP (4 mg/kg, […], dose level Low, time 7 day): 1.6 IU/L
- A/G [1]: 1.1
- ALP [1]: 1081.2 IU/L
- ALT [1]: 35.8 IU/L
- AST [1]: 64.2 IU/L
- BUN [1]: 19.2 mg/dL
- CRE [1]: 0.2 mg/dL
- Ca [1]: 10.9 mg/dL
- Cl [1]: 106.8 meq/L
- DBIL [1]: 0 mg/dL
- GLC [1]: 179.4 mg/dL
- IP [1]: 6.8 mg/dL
- K [1]: 4.2 meq/L
- LDH [1]: 141.2 IU/L
- Na [1]: 142.8 meq/L
- PL [1]: 143.4 mg/dL
- RALB [1]: 2.9 g/dL
- TBIL [1]: 0.002 mg/dL
- TC [1]: 76.8 mg/dL
- TG [1]: 129.2 mg/dL
- TP [1]: 5.5 g/dL
- gamma-GTP [1]: 1.4 IU/L
- A/G [2]: 0.7
- ALP [2]: 666.2 IU/L
- ALT [2]: 34.6 IU/L
- AST [2]: 47 IU/L
- BUN [2]: 17.2 mg/dL
- CRE [2]: 0.2 mg/dL
- Ca [2]: 10.4 mg/dL
- Cl [2]: 104.2 meq/L
- DBIL [2]: 0 mg/dL
- GLC [2]: 181.8 mg/dL
- IP [2]: 6.8 mg/dL
- K [2]: 4.3 meq/L
- LDH [2]: 134 IU/L
- Na [2]: 142.4 meq/L
- PL [2]: 334 mg/dL
- RALB [2]: 2.2 g/dL
- TBIL [2]: 0.006 mg/dL
- TC [2]: 203.8 mg/dL
- TG [2]: 254.2 mg/dL
- TP [2]: 5.4 g/dL
- gamma-GTP [2]: 1.2 IU/L
- TERMINAL_BW [3]: 221.5 g
- APTT [3]: 20.8 s
- Bas [3]: 0%
- Eos [3]: 1%
- Fbg [3]: 305.2 mg/dL
- Hb [3]: 13.2 g/dL
- Ht [3]: 38.5%
- Lym [3]: 86.2%
- MCH [3]: 21 pg
- MCHC [3]: 34.2%
- MCV [3]: 61.4 fL
- Mono [3]: 2%
- Neu [3]: 9.8%
- PT [3]: 16 s
- Plat [3]: 119.7 x10_4/uL
- RBC [3]: 626.8 x10_4/ul
- Ret [3]: 4.3%
- WBC [3]: 80.4 x10_2/uL
- KIDNEY_L [3]: 0.9 g
- KIDNEY_R [3]: 1 g
- KIDNEY_TOTAL [3]: 1.9 g
- LIVER [3]: 9.9 g
- A/G [3]: 1.3
- ALP [3]: 1198.8 IU/L
- ALT [3]: 39.4 IU/L
- AST [3]: 69.4 IU/L
- BUN [3]: 20.8 mg/dL
- CRE [3]: 0.2 mg/dL
- Ca [3]: 11.2 mg/dL
- Cl [3]: 104.6 meq/L
- DBIL [3]: 0 mg/dL
- GLC [3]: 174.4 mg/dL
- IP [3]: 8.2 mg/dL
- K [3]: 4.4 meq/L
- LDH [3]: 145.6 IU/L
- Na [3]: 141.2 meq/L
- PL [3]: 133 mg/dL
- RALB [3]: 3 g/dL
- TBIL [3]: 0.016 mg/dL
- TC [3]: 66.6 mg/dL
- TG [3]: 67.4 mg/dL
- TP [3]: 5.4 g/dL
- gamma-GTP [3]: 1.8 IU/L
- TERMINAL_BW [4]: 243.7 g
- TERMINAL_BW [5]: 292.3 g
- TERMINAL_BW [6]: 237.1 g
- APTT [4]: 21 s
- Bas [4]: 0%
- Eos [4]: 1%
- Fbg [4]: 304.2 mg/dL
- Hb [4]: 13.5 g/dL
- Ht [4]: 38.5%
- Lym [4]: 74.4%
- MCH [4]: 20.6 pg
- MCHC [4]: 35%
- MCV [4]: 58.9 fL
- Mono [4]: 2.6%
- Neu [4]: 21.6%
- PT [4]: 15.8 s
- Plat [4]: 107.5 x10_4/uL
- RBC [4]: 653.8 x10_4/ul
- Ret [4]: 3.3%
- WBC [4]: 93.9 x10_2/uL
- APTT [5]: 18.6 s
- Bas [5]: 0%
- Eos [5]: 0.8%
- Fbg [5]: 561 mg/dL
- Hb [5]: 13.1 g/dL
- Ht [5]: 35.4%
- Lym [5]: 78.2%
- MCH [5]: 20.3 pg
- MCHC [5]: 36.9%
- MCV [5]: 55.1 fL
- Mono [5]: 2.8%
- Neu [5]: 17%
- PT [5]: 13.1 s
- Plat [5]: 181.7 x10_4/uL
- RBC [5]: 641.8 x10_4/ul
- Ret [5]: 1.3%
- WBC [5]: 140.4 x10_2/uL
- APTT [6]: 15.1 s
- Bas [6]: 0%
- Eos [6]: 0.5%
- Fbg [6]: 627 mg/dL
- Hb [6]: 9.5 g/dL
- Ht [6]: 23.8%
- Lym [6]: 60.8%
- MCH [6]: 18.8 pg
- MCHC [6]: 40%
- MCV [6]: 46.9 fL
- Mono [6]: 5.2%
- Neu [6]: 32%
- PT [6]: 15.2 s
- Plat [6]: 137.6 x10_4/uL
- RBC [6]: 498.2 x10_4/ul
- Ret [6]: 0.5%
- WBC [6]: 106.1 x10_2/uL
- KIDNEY_L [4]: 1 g
- KIDNEY_R [4]: 1 g
- KIDNEY_TOTAL [4]: 2 g
- KIDNEY_L [5]: 1.6 g
- KIDNEY_R [5]: 1.6 g
- KIDNEY_TOTAL [5]: 3.2 g
- KIDNEY_L [6]: 2.3 g
- KIDNEY_R [6]: 2.3 g
- KIDNEY_TOTAL [6]: 4.6 g
- LIVER [4]: 10.4 g
- LIVER [5]: 12.1 g
- LIVER [6]: 12.8 g
- A/G [4]: 1.1
- ALP [4]: 1114.8 IU/L
- ALT [4]: 36.8 IU/L
- AST [4]: 66.4 IU/L
- BUN [4]: 21.8 mg/dL
- CRE [4]: 0.2 mg/dL
- Ca [4]: 10.8 mg/dL
- Cl [4]: 107.2 meq/L
- DBIL [4]: 0.002 mg/dL
- GLC [4]: 174.8 mg/dL
- IP [4]: 7.5 mg/dL
- K [4]: 4.2 meq/L
- LDH [4]: 139.2 IU/L
- Na [4]: 140.4 meq/L
- PL [4]: 139.2 mg/dL
- RALB [4]: 2.8 g/dL
- TBIL [4]: 0.014 mg/dL
- TC [4]: 76.2 mg/dL
- TG [4]: 86.8 mg/dL
- TP [4]: 5.3 g/dL
- gamma-GTP [4]: 1.4 IU/L
- A/G [5]: 0.5
- ALP [5]: 267.4 IU/L
- ALT [5]: 31.4 IU/L
- AST [5]: 35.8 IU/L
- BUN [5]: 77.4 mg/dL
- CRE [5]: 0.5 mg/dL
- Ca [5]: 9.3 mg/dL
- Cl [5]: 107.6 meq/L
- DBIL [5]: 0 mg/dL
- GLC [5]: 180.8 mg/dL
- IP [5]: 7.8 mg/dL
- K [5]: 4 meq/L
- LDH [5]: 214.2 IU/L
- Na [5]: 143.4 meq/L
- PL [5]: 533 mg/dL
- RALB [5]: 1.3 g/dL
- TBIL [5]: 0 mg/dL
- TC [5]: 344.6 mg/dL
- TG [5]: 454 mg/dL
- TP [5]: 4.1 g/dL
- gamma-GTP [5]: 1.8 IU/L
- A/G [6]: 0.4
- ALP [6]: 137.2 IU/L
- ALT [6]: 61 IU/L
- AST [6]: 53.2 IU/L
- BUN [6]: 86.5 mg/dL
- CRE [6]: 1.1 mg/dL
- Ca [6]: 8.4 mg/dL
- Cl [6]: 104 meq/L
- DBIL [6]: 0 mg/dL
- GLC [6]: 158.8 mg/dL
- IP [6]: 8.8 mg/dL
- K [6]: 3.9 meq/L
- LDH [6]: 391.8 IU/L
- Na [6]: 142.2 meq/L
- PL [6]: 854.5 mg/dL
- RALB [6]: 1.3 g/dL
- TBIL [6]: 0.0025 mg/dL
- TC [6]: 589 mg/dL
- TG [6]: 351 mg/dL
- TP [6]: 4.5 g/dL
- gamma-GTP [6]: 2.8 IU/L
- TERMINAL_BW [7]: 218.3 g
- APTT [7]: 19.2 s
- Bas [7]: 0%
- Eos [7]: 0.6%
- Fbg [7]: 356 mg/dL
- Hb [7]: 13.3 g/dL
- Ht [7]: 38.2%
- Lym [7]: 88.4%
- MCH [7]: 20.4 pg
- MCHC [7]: 34.7%
- MCV [7]: 58.9 fL
- Mono [7]: 2.4%
- Neu [7]: 7.4%
- PT [7]: 15.9 s
- Plat [7]: 136.4 x10_4/uL
- RBC [7]: 649 x10_4/ul
- Ret [7]: 2%
- WBC [7]: 82.2 x10_2/uL
- KIDNEY_L [7]: 0.9 g
- KIDNEY_R [7]: 1 g
- KIDNEY_TOTAL [7]: 1.9 g
- LIVER [7]: 9.6 g
- A/G [7]: 1.2
- ALP [7]: 892.8 IU/L
- ALT [7]: 40.6 IU/L
- AST [7]: 62 IU/L
- BUN [7]: 24.2 mg/dL
- CRE [7]: 0.2 mg/dL
- Ca [7]: 12.3 mg/dL
- Cl [7]: 102.8 meq/L
- DBIL [7]: 0 mg/dL
- GLC [7]: 179.6 mg/dL
- IP [7]: 10.8 mg/dL
- K [7]: 4.4 meq/L
- LDH [7]: 154.8 IU/L
- Na [7]: 141.2 meq/L
- PL [7]: 153 mg/dL
- RALB [7]: 3 g/dL
- TBIL [7]: 0.022 mg/dL
- TC [7]: 82 mg/dL
- TG [7]: 64.4 mg/dL
- TP [7]: 5.5 g/dL
- gamma-GTP [7]: 1.8 IU/L
- TERMINAL_BW [8]: 221.5 g
- APTT [8]: 18 s
- Bas [8]: 0%
- Eos [8]: 0.6%
- Fbg [8]: 621.8 mg/dL
- Hb [8]: 13.7 g/dL
- Ht [8]: 37.4%
- Lym [8]: 84.8%
- MCH [8]: 20.5 pg
- MCHC [8]: 36.6%
- MCV [8]: 56.2 fL
- Mono [8]: 2.6%
- Neu [8]: 10.8%
- PT [8]: 13 s
- Plat [8]: 106.2 x10_4/uL
- RBC [8]: 665.2 x10_4/ul
- Ret [8]: 0.8%
- WBC [8]: 108.1 x10_2/uL
- KIDNEY_L [8]: 1.2 g
- KIDNEY_R [8]: 1.2 g
- KIDNEY_TOTAL [8]: 2.4 g
- LIVER [8]: 8.2 g
- A/G [8]: 0.4
- ALP [8]: 264.4 IU/L
- ALT [8]: 65.8 IU/L
- AST [8]: 78.6 IU/L
- BUN [8]: 166.8 mg/dL
- CRE [8]: 1 mg/dL
- Ca [8]: 9.1 mg/dL
- Cl [8]: 101 meq/L
- DBIL [8]: 0 mg/dL
- GLC [8]: 164.4 mg/dL
- IP [8]: 12.6 mg/dL
- K [8]: 5 meq/L
- LDH [8]: 484 IU/L
- Na [8]: 135.4 meq/L
- PL [8]: 387.2 mg/dL
- RALB [8]: 1.1 g/dL
- TBIL [8]: 0.01 mg/dL
- TC [8]: 266.6 mg/dL
- TG [8]: 125.6 mg/dL
- TP [8]: 3.5 g/dL
- gamma-GTP [8]: 2.4 IU/L
